In ChEMBL document CHEMBL5247592, “Discovery of novel VEGFR-2-PROTAC degraders based on the localization of lysine residues via recruiting VHL for the treatment of gastric cancer” (Eur J Med Chem, 2022):
pIC50: −log10 of the molar value. The source made the active and inactive calls. No cut-off for these calls is given here. Residues, ends and D or L forms follow the SMILES beside them. *: point of attachment. Cbz = O=C(OCc1ccccc1)*

Experiments:
[1] = target: Vascular endothelial growth factor receptor 2 (Homo sapiens, UniProt P35968); assay: Inhibition of VEGFR2 (unknown origin) by caliper mobility shift assay
Sequence of Vascular endothelial growth factor receptor 2 (P35968 whole entry): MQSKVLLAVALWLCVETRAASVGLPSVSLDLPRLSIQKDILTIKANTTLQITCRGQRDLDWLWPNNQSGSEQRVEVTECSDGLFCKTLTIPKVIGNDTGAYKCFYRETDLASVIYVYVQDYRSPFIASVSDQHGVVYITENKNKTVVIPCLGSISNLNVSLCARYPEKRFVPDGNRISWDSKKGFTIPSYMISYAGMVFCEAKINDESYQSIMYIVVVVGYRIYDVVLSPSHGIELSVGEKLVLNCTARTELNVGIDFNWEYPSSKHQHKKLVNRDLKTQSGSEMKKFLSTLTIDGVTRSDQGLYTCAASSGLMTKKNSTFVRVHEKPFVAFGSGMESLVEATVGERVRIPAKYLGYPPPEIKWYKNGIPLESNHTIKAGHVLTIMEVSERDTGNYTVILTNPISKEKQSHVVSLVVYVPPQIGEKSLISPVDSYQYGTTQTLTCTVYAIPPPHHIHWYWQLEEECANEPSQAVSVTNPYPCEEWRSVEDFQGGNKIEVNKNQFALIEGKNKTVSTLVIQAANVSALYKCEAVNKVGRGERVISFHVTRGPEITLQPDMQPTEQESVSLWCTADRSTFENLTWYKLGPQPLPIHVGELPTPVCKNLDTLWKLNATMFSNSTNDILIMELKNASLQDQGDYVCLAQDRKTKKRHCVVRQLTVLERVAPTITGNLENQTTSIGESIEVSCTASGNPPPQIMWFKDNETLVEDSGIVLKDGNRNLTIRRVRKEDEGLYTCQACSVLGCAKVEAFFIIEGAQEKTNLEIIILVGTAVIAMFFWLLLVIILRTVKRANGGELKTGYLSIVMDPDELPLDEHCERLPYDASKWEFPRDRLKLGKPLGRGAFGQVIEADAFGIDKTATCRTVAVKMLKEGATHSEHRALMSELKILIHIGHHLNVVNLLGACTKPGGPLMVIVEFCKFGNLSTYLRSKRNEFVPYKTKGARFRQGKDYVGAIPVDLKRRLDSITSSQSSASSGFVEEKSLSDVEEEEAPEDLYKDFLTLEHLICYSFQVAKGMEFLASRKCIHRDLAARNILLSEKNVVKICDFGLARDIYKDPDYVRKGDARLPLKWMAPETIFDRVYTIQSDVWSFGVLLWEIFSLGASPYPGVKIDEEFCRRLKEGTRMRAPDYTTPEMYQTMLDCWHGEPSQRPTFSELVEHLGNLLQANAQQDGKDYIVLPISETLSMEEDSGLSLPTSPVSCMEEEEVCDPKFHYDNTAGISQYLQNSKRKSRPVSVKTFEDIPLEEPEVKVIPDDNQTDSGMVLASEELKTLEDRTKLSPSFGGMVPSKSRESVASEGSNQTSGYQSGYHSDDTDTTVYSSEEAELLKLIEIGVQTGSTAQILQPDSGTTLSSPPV

HGC-27 = assay: Antiproliferative activity against human HGC-27 cells assessed as inhibition of cell growth incubated for 72 hrs by MTT assay; type: functional, cell-based; conditions: HGC-27, 72 h
[2] = Cytotoxicity against HEK293T cells assessed as inhibition of cell growth incubated for 72 hrs by MTT assay; type: toxicity, cell-based, HEK-293T; conditions: human
[3] = Cytotoxicity against HUVEC cells assessed as inhibition of cell growth incubated for 72 hrs by MTT assay; type: toxicity, cell-based; conditions: human
[4] = Cytotoxicity against human GES1 cells assessed as inhibition of cell growth incubated for 72 hrs by MTT assay; type: toxicity, cell-based
[5] = target: T1, von Hippel-Lindau disease tumor suppressor/Vascular endothelial growth factor receptor 2 (Homo sapiens, UniProt P35968+P40337); assay: PROTAC activity at VHL/VEGFR2 in human HGC-27 cells assessed as induction of VEGRF2 protein degradation at 100 nM incubated for 2 hrs by Western blot analysis; type: cell-based
T1 sequence (P35968 20-1356 limits assumed): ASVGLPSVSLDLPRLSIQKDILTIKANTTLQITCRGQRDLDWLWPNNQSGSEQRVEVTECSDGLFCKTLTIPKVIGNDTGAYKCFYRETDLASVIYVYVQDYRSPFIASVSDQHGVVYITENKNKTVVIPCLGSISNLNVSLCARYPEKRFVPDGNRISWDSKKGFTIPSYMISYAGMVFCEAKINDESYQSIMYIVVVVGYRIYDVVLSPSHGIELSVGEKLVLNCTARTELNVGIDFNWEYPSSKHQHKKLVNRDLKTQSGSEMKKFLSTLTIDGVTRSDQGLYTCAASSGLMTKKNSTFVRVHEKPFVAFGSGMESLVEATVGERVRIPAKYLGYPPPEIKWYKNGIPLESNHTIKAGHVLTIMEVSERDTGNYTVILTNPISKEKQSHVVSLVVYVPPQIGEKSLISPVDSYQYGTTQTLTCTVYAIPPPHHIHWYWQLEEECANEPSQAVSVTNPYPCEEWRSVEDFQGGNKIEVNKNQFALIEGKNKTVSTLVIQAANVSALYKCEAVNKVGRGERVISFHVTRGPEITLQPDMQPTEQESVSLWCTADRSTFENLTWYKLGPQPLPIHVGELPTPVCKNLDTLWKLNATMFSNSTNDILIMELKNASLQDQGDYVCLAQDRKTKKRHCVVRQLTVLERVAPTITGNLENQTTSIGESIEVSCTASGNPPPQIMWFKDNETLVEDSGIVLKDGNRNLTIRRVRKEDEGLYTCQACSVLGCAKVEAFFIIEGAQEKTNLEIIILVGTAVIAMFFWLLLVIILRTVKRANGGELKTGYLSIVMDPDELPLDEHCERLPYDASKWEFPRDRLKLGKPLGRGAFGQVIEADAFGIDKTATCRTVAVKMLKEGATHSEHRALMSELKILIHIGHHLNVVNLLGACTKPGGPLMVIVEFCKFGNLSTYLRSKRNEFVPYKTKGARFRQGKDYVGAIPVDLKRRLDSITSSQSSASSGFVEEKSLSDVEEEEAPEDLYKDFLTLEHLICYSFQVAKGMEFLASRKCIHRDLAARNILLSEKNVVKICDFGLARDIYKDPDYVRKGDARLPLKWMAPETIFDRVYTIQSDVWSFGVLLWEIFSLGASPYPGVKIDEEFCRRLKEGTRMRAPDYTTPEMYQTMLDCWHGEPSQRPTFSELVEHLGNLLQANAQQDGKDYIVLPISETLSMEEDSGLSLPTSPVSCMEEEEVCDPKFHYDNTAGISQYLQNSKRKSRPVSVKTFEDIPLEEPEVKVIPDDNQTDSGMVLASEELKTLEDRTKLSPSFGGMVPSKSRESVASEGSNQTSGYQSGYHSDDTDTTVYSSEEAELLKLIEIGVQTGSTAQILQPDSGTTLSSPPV
T1 sequence (P40337 whole entry partner): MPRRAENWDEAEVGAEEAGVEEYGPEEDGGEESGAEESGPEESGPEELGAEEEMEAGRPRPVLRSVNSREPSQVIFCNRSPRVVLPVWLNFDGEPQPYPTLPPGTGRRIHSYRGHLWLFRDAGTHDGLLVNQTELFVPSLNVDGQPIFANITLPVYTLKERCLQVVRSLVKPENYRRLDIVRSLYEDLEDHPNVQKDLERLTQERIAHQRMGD

[6] = target: T1, von Hippel-Lindau disease tumor suppressor/Vascular endothelial growth factor receptor 2; assay: PROTAC activity at VHL/VEGFR2 in human HGC-27 cells assessed as induction of VEGRF2 protein degradation at 1 uM incubated for 2 hrs by Western blot analysis; type: cell-based
[7] = target: T1, von Hippel-Lindau disease tumor suppressor/Vascular endothelial growth factor receptor 2; assay: PROTAC activity at VHL/VEGFR2 in human HGC-27 cells assessed as induction of VEGRF2 protein degradation at 10 uM incubated for 2 hrs by Western blot analysis; type: cell-based

pIC50 [1]	Activity [5]	Activity [6]	Activity [7]	Compound	pIC50 (HGC-27)	IC50 at 72 h [2] [µM]	IC50 at 72 h [3] [µM]	IC50 at 72 h [4] [µM]
8.57	inactive	–	–	Cc1ccc(NC(=O)Cn2cc(-c3ccc4c(NC(=O)c5ccc(N)cc5)n[nH]c4c3)cn2)cc1C(F)(F)F	5.67	0.025	0.11	2.35
–	–	inactive	–	NS(=O)(=O)OC[C@@H]1C[C@@H](n2ccc3c(N[C@H]4CCc5ccccc54)ncnc32)C[C@@H]1O	–	–	–	–
9.38	–	–	–	Cc1ccc(NC(=O)Cn2cc(-c3ccc4c(NC(=O)c5ccc(N6CCNCC6)cc5)n[nH]c4c3)cn2)cc1C(F)(F)F	5.60	3.57	1.7	1.32
–	–	–	inactive	CC(C)C[C@@H](C=O)NC(=O)[C@H](CC(C)C)NC(=O)[C@H](CC(C)C)NC(=O)OCc1ccccc1 (Cbz-Leu-Leu-Leu-aldehyde)	–	–	–	–
